Data taken from BindingDB's records for doi:10.1016/j.bioorg.2015.12.005 (Birla Institute of Technology, 2016).

Molecular target: Reverse transcriptase protein (Human immunodeficiency virus 1, UniProt Q9WJQ1)
Experiment: In-vitro HIV-1 RT Screening
Description: The reaction mixture was set with template primer complex, RT enzyme and dNTPs in a lysis buffer with or without inhibitors. The reaction mixture was incubated at 37 °C for 1 h and then transferred to streptavidine-coated microtitre plate (MTP). The biotin-labeled dNTPs that were incorporated in the template due to activity of RT, bound to streptavidine. The unbound dNTPs were washed using wash buffer and anti-DIG-POD was added to the MTP. The DIG-labeled dNTPs incorporated in the template were bound to an anti-DIG-POD antibody. The unbound anti-DIG-POD was washed again with washing buffer and the peroxide substrate (ABST) was added to the MTP. A colored reaction product was produced during the cleavage of the substrate catalyzed by a peroxide enzyme.

Row | Compound | IC50 [µM]
1 | O=C(Nc1ccccc1F)OC(CN1CCCc2ccccc21)c1ccc(Cl)cc1 (configuration not stated) [1-(4-chlorophenyl)-2-(3,4-dihydroquinolin-1(2H)-yl)ethyl 2-fluorophenylcarbamate (6e)] | 90.3
2 | O=C(Nc1cccc(F)c1)OC(CN1CCCc2ccccc21)c1ccc(Cl)cc1 (configuration not stated) [1-(4-chlorophenyl)-2-(3,4-dihydroquinolin-1(2H)-yl)ethyl 3-fluorophenylcarbamate (6f)] | 72.1
3 | O=C(Nc1cccc([N+](=O)[O-])c1)OC(CN1CCCc2ccccc21)c1ccc(Cl)cc1 (configuration not stated) [1-(4-chlorophenyl)-2-(3,4-dihydroquinolin-1(2H)-yl)ethyl 3-nitrophenylcarbamate (6i)] | 14.9
4 | O=C(Nc1ccc(Cl)cc1)OC(CN1CCCc2ccccc21)c1ccc(Cl)cc1 (configuration not stated) [1-(4-chlorophenyl)-2-(3,4-dihydroquinolin-1(2H)-yl)ethyl 4-chlorophenylcarbamate (6h)] | 23.8
5 | O=C(Nc1ccc(F)cc1)OC(CN1CCCc2ccccc21)c1ccc(Cl)cc1 (configuration not stated) [1-(4-chlorophenyl)-2-(3,4-dihydroquinolin-1(2H)-yl)ethyl 4-fluorophenylcarbamate (6g)] | 48.6
6 | O=C(Nc1ccc([N+](=O)[O-])cc1)OC(CN1CCCc2ccccc21)c1ccc(Cl)cc1 (configuration not stated) [1-(4-chlorophenyl)-2-(3,4-dihydroquinolin-1(2H)-yl)ethyl 4-nitrophenylcarbamate (6j)] | 5.42
7 | Cc1cccc(NC(=O)OC(CN2CCCc3ccccc32)c2ccc(Cl)cc2)c1 (configuration not stated) [1-(4-chlorophenyl)-2-(3,4-dihydroquinolin-1(2H)-yl)ethyl m-tolylcarbamate (6c)] | 68.3
8 | Cc1ccccc1NC(=O)OC(CN1CCCc2ccccc21)c1ccc(Cl)cc1 (configuration not stated) [1-(4-chlorophenyl)-2-(3,4-dihydroquinolin-1(2H)-yl)ethyl o-tolylcarbamate (6b)] | 8.12
9 | Cc1ccc(NC(=O)OC(CN2CCCc3ccccc32)c2ccc(Cl)cc2)cc1 (configuration not stated) [1-(4-chlorophenyl)-2-(3,4-dihydroquinolin-1(2H)-yl)ethyl p-tolylcarbamate (6d)] | 83.6
10 | O=C(Nc1ccccc1)OC(CN1CCCc2ccccc21)c1ccc(Cl)cc1 (configuration not stated) [1-(4-chlorophenyl)-2-(3,4-dihydroquinolin-1(2H)-yl)ethyl phenylcarbamate (6a)] | 37
11 | CCOC(=O)c1ccc(NC(=O)OC(CN2CCCc3ccccc32)c2ccc(Cl)cc2)cc1 (configuration not stated) [Ethyl4-((1-(4-chlorophenyl)-2-(3,4-dihydroquinolin-1(2H)-yl)ethoxy)carbonylamino) benzoate (6l)] | 12.3
12 | CCOC(=O)c1ccccc1NC(=O)OC(CN1CCCc2ccccc21)c1ccc(Cl)cc1 (configuration not stated) [Ethyl 2-((1-(4-chlorophenyl)-2-(3,4-dihydroquinolin-1(2H)-yl)ethoxy)carbonylamino) benzoate (6k)] | 39
